Counter-ions that a name gives are not always drawn.

This assay deals with ATM (Homo sapiens (Human), UniProt Q13315). As to the kind of experiment: ATM in Cell Western Assay (pKAP1 in etoposide-treated MCF-7 cells). The settings on record: pKAP1 in etoposide-treated MCF-7 cells. It is filed as cell-based. Summed up: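 After paraformaldehyde fixation and Triton X-100 permeabilization, immunostained plates were read by infrared scanning (ODYSSEY CLx). Compound was given as 10 doses, 3-fold dilutions from a 1 μM final top concentration.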
Sequence of ATM (Q13315 whole entry): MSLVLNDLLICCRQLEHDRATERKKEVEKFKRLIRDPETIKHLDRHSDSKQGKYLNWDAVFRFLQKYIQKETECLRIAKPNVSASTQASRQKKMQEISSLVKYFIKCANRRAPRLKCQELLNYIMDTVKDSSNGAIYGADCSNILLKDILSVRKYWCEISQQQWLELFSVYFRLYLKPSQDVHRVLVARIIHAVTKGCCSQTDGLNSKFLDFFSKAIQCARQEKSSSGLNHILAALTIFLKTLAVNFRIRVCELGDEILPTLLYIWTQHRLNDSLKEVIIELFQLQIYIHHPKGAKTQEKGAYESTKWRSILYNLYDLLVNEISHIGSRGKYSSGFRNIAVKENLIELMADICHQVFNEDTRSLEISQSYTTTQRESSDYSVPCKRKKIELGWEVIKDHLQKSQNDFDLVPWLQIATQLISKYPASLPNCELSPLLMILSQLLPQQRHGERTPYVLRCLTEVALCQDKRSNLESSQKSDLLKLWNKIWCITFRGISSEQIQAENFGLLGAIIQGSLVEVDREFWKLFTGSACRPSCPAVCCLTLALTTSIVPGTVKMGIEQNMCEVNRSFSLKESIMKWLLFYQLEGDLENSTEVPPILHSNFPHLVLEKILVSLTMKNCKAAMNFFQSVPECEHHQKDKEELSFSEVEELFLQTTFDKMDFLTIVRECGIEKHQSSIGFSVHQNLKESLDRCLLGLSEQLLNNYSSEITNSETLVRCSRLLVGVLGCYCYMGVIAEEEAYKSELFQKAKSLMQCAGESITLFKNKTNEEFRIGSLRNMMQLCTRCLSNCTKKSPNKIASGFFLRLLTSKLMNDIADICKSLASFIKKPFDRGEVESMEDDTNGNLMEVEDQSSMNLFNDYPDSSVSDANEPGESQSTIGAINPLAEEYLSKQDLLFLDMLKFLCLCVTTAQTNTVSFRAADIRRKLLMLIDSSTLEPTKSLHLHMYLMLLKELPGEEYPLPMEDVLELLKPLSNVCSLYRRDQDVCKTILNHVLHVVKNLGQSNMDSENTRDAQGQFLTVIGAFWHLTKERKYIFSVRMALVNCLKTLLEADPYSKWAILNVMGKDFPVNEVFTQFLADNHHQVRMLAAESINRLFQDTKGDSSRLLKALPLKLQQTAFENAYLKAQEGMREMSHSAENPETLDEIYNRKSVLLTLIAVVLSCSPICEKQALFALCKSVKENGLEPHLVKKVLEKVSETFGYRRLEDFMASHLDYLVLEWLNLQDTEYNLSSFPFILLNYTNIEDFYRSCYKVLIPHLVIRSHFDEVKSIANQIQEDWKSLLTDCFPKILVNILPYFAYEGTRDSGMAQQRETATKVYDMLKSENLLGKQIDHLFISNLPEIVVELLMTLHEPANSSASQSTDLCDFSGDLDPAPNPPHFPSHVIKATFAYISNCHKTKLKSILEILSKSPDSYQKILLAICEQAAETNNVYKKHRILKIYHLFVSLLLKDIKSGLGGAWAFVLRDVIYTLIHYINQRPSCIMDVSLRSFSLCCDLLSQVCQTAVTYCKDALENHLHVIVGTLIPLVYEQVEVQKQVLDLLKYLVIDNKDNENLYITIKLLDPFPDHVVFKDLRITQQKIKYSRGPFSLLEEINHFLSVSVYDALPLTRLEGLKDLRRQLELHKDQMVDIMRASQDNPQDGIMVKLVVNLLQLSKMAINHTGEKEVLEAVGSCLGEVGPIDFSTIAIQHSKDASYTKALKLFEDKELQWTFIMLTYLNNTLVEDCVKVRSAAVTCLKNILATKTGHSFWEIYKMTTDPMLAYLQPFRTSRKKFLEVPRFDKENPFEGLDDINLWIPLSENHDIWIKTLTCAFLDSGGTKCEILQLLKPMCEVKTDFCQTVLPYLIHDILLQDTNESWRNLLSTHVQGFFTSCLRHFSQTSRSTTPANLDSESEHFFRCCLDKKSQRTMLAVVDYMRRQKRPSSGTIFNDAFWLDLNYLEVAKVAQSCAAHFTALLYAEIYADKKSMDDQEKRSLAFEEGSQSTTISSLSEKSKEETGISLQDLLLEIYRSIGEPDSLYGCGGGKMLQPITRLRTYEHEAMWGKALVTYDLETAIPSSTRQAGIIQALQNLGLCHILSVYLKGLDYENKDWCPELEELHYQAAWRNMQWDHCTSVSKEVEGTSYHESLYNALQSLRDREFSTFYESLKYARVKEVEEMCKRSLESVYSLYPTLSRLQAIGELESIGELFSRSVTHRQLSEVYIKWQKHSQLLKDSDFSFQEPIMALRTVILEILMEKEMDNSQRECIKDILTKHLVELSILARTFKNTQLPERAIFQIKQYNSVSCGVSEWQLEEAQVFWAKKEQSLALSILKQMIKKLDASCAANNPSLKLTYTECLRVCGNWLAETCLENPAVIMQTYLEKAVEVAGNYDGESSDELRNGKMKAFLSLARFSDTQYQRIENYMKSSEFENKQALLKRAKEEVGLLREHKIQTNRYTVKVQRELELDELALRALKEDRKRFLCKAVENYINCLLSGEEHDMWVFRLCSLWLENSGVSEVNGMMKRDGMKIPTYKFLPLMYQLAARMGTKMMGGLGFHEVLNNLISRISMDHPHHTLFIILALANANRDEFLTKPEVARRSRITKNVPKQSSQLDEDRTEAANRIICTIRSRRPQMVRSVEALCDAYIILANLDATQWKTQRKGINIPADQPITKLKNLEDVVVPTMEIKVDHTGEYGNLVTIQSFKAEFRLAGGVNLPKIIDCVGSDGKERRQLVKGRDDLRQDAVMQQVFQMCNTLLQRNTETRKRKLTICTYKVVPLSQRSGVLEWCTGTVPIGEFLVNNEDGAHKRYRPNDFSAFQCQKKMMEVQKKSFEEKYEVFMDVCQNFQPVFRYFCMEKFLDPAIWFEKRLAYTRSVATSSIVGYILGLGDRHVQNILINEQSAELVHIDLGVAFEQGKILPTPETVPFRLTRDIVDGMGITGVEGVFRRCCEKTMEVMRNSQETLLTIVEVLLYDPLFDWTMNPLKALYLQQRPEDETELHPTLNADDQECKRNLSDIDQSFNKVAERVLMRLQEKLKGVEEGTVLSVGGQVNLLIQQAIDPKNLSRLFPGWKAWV
By IC50 is commonly meant the concentration that gives 50% inhibition. For `CN(C)CCCOc1ncc(-c2ccc3ncc4c(c3c2)C2(CN(C(=O)OC(C)(C)C)C2)C(=O)N4C)cc1NS(C)(=O)=O` [Example 479, tert-Butyl 8′-(6-(3-(dimethylamino)propoxy)-5-(methylsulfonamido)pyridin-3-yl)-3′-methyl-2′-oxo-2′,3′-dihydrospiro[azetidine-3,1′-pyrrolo[2,3-c]quinoline]-1-carboxylate], the IC50 is 1 to 100 nM.
Compound `CN1C(=O)C2(CN(CC(F)(F)F)C2)c2c1cnc1ccc(-c3cnc(N4CC(N(C)C)C4)c(NS(C)(=O)=O)c3)cc21` [Example 480] gave an IC50 of 1 to 100 nM.
Then `CC(C)NCCOc1ncc(-c2cc3c4c(cnc3cc2F)N(C)C(=O)C42CN(C)C2)cc1NS(C)(=O)=O` [Example 481, N-(5-(7′-Fluoro-1,3′-dimethyl-2′-oxo-2′,3′-dihydrospiro[azetidine-3,1′-pyrrolo[2,3-c]quinolin]-8′-yl)-2-(2-(isopropylamino)ethoxy)pyridin-3-yl)methanesulfonamide hydrochloride], with 1 to 100 nM; and `CCN1CC2(C1)C(=O)N(C)c1cnc3cc(F)c(-c4cnc(OCCNC(C)C)c(NS(C)(=O)=O)c4)cc3c12` [Example 482, N-(5-(1-Ethyl-7-fluoro-3′-methyl-2′-oxo-2′,3′-dihydrospiro[azetidine-3,1′-pyrrolo[2,3-c]quinolin]-8′-yl)-2-(2-(isopropylamino)ethoxy)pyridin-3-yl)methanesulfonamide], with 1 to 100 nM; and `CCC(C)N1CC2(C1)C(=O)N(C)c1cnc3cc(F)c(-c4cnc(OCCNC(C)C)c(NS(C)(=O)=O)c4)cc3c12` (stereo not drawn) [Example 487, N-(5-(1-(sec-Butyl)-7′-fluoro-3′-methyl-2′-oxo-2′,3′-dihydrospiro[azetidine-3,1′-pyrrolo[2,3-c]quinolin]-8′-yl)-2-(2-(isopropylamino)ethoxy)pyridin-3-yl)methanesulfonamide], with 1 to 100 nM.
The compound `CCCN1CC2(C1)C(=O)N(C)c1cnc3cc(F)c(-c4cnc(OCCNC(C)C)c(NS(C)(=O)=O)c4)cc3c12` [Example 488, N-(5-(7′-Fluoro-3′-methyl-2′-oxo-1-propyl-2′,3′-dihydrospiro[azetidine-3,1′-pyrrolo[2,3-c]quinolin]-8′-yl)-2-(2-(isopropylamino)ethoxy)pyridin-3-yl)methanesulfonamide] had an IC50 of 1 to 100 nM.
In the case of `CCCCN1CC2(C1)C(=O)N(C)c1cnc3cc(F)c(-c4cnc(OCCNC(C)C)c(NS(C)(=O)=O)c4)cc3c12` [Example 489, N-(5-(1-butyl-7′-fluoro-3′-methyl-2′-oxo-2′,3′-dihydrospiro[azetidine-3,1′-pyrrolo[2,3-c]quinolin]-8′-yl)-2-(2-(isopropylamino)ethoxy)pyridin-3-yl)methanesulfonamide], the IC50 was 1 to 100 nM.
The result for `CCC(CC)N1CC2(C1)C(=O)N(C)c1cnc3cc(F)c(-c4cnc(OCCNC(C)C)c(NS(C)(=O)=O)c4)cc3c12` [Example 490, N-(5-(7′-Fluoro-3′-methyl-2′-oxo-1-(pentan-3-yl)-2′,3′-dihydrospiro[azetidine-3,1′-pyrrolo[2,3-c]quinolin]-8′-yl)-2-(2-(isopropylamino)ethoxy)pyridin-3-yl)methanesulfonamide] reads 1 to 100 nM; that for `CC(C)CN1CC2(C1)C(=O)N(C)c1cnc3cc(F)c(-c4cnc(OCCNC(C)C)c(NS(C)(=O)=O)c4)cc3c12` [Example 491, N-(5-(7′-Fluoro-1-isobutyl-3′-methyl-2′-oxo-2′,3′-dihydrospiro[azetidine-3,1′-pyrrolo[2,3-c]quinolin]-8′-yl)-2-(2-(isopropylamino)ethoxy)pyridin-3-yl)methanesulfonamide], 1 to 100 nM; that for `CC(C)CCN1CC2(C1)C(=O)N(C)c1cnc3cc(F)c(-c4cnc(OCCNC(C)C)c(NS(C)(=O)=O)c4)cc3c12` [Example 492, N-(5-(7′-Fluoro-1-isopentyl-3′-methyl-2′-oxo-2′,3′-dihydrospiro[azetidine-3,1′-pyrrolo[2,3-c]quinolin]-8′-yl)-2-(2-(isopropylamino)ethoxy)pyridin-3-yl)methanesulfonamide], over 100 nM.
`CC(C)NCCOc1ncc(-c2cc3c4c(cnc3cc2F)N(C)C(=O)C42CN([C@@H](C)c3ccccc3)C2)cc1NS(C)(=O)=O` [Example 493, (S)-N-(5-(7′-Fluoro-3′-methyl-2′-oxo-1-(1-phenylethyl)-2′,3′-dihydrospiro [azetidine-3,1′-pyrrolo[2,3-c]quinolin]-8′-yl)-2-(2-(isopropylamino)ethoxy)pyridin-3-yl)methanesulfonamide] had an IC50 of 1 to 100 nM.
In turn, `CC(C)NCCOc1ncc(-c2cc3c4c(cnc3cc2F)N(C)C(=O)C42CN([C@H](C)c3ccccc3)C2)cc1NS(C)(=O)=O` [Example 494] gave an IC50 of over 100 nM.
Then `CC(C)NCCOc1ncc(-c2cc3c4c(cnc3cc2F)N(C)C(=O)C42CN(Cc3ccccc3)C2)cc1NS(C)(=O)=O` [Example 495, N-(5-(1-Benzyl-7-fluoro-3′-methyl-2′-oxo-2′,3′-dihydrospiro[azetidine-3,1′-pyrrolo[2,3-c]quinolin]-8′-yl)-2-(2-(isopropylamino)ethoxy)pyridin-3-yl)methanesulfonamide], with 1 to 100 nM; and `CC(C)NCCOc1ncc(-c2cc3c4c(cnc3cc2F)N(C)C(=O)C42CN(C3CC3)C2)cc1NS(C)(=O)=O` [Example 496, N-(5-(1-Cyclopropyl-7′-fluoro-3′-methyl-2′-oxo-2′,3′-dihydrospiro[azetidine-3,1′-pyrrolo[2,3-c]quinolin]-8′-yl)-2-(2-(isopropylamino)ethoxy)pyridin-3-yl)methanesulfonamide], with 1 to 100 nM.
`CC(C)NCCOc1ncc(-c2cc3c4c(cnc3cc2F)N(C)C(=O)C42CN(C3CCCCC3)C2)cc1NS(C)(=O)=O` [Example 499, N-(5-(1-Cyclohexyl-7′-fluoro-3′-methyl-2′-oxo-2′,3′-dihydrospiro[azetidine-3,1′-pyrrolo[2,3-c]quinolin]-8′-yl)-2-(2-(isopropylamino)ethoxy)pyridin-3-yl)methanesulfonamide] had an IC50 of 1 to 100 nM.
Consider `CC(C)NCCOc1ncc(-c2cc3c4c(cnc3cc2F)N(C)C(=O)C42CN(C3CCOCC3)C2)cc1NS(C)(=O)=O` [Example 500, N-(5-(7′-Fluoro-3′-methyl-2′-oxo-1-(tetrahydro-2H-pyran-4-yl)-2′,3′-dihydrospiro[azetidine-3,1′-pyrrolo[2,3-c]quinolin]-8′-yl)-2-(2-(isopropylamino)ethoxy)pyridin-3-yl)methanesulfonamide hydrochloride], for which the IC50 fell in the range of 1 to 100 nM.
Then `CC(C)NCCOc1ncc(-c2cc3c4c(cnc3cc2F)N(C)C(=O)C42CN(C3CCNCC3)C2)cc1NS(C)(=O)=O` [Example 501, N-(5-(7′-Fluoro-3′-methyl-2′-oxo-1-(piperidin-4-yl)-2′,3′-dihydrospiro[azetidine-3,1′-pyrrolo[2,3-c]quinolin]-8′-yl)-2-(2-(isopropylamino)ethoxy)pyridin-3-yl)methanesulfonamide], with over 100 nM; and `CC(C)NCCOc1ncc(-c2cc3c4c(cnc3cc2F)N(C)C(=O)C42CN(C3CCN(C)CC3)C2)cc1NS(C)(=O)=O` [Example 502, N-(5-(7′-Fluoro-3′-methyl-1-(1-methylpiperidin-4-yl)-2′-oxo-2′,3′-dihydrospiro[azetidine-3,1′-pyrrolo[2,3-c]quinolin]-8′-yl)-2-(2-(isopropylamino)ethoxy)pyridin-3-yl)methanesulfonamide], with over 100 nM; and `CC(=O)N1CCC(N2CC3(C2)C(=O)N(C)c2cnc4cc(F)c(-c5cnc(OCCNC(C)C)c(NS(C)(=O)=O)c5)cc4c23)CC1` [Example 503, N-(5-(1-(1-Acetylpiperidin-4-yl)-7′-fluoro-3′-methyl-2′-oxo-2′,3′-dihydrospiro[azetidine-3,1′-pyrrolo[2,3-c]quinolin]-8′-yl)-2-(2-(isopropylamino)ethoxy)pyridin-3-yl)methanesulfonamide], with over 100 nM.
Take `CC(C)NCCOc1ncc(-c2cc3c4c(cnc3cc2F)N(C)C(=O)C42CN([C@H]3CC[C@@H](O)CC3)C2)cc1NS(C)(=O)=O` [Example 504, N-(5-(7′-Fluoro-1-(cis-4-hydroxycyclohexyl)-3′-methyl-2′-oxo-2′,3′-dihydrospiro[azetidine-3,1′-pyrrolo[2,3-c]quinolin]-8′-yl)-2-(2-(isopropylamino)ethoxy)pyridin-3-yl)methanesulfonamide]: the half-maximal inhibitory concentration (IC50) was over 100 nM.
The result for `CC(C)NCCOc1ncc(-c2cc3c4c(cnc3cc2F)N(C)C(=O)C42CN([C@H]3CC[C@H](O)CC3)C2)cc1NS(C)(=O)=O` [Example 505, N-(5-(7′-Fluoro-1-(trans-4-hydroxycyclohexyl)-3′-methyl-2′-oxo-2′,3′-dihydrospiro[azetidine-3,1′-pyrrolo[2,3-c]quinolin]-8′-yl)-2-(2-(isopropylamino)ethoxy)pyridin-3-yl)methanesulfonamide] reads over 100 nM; that for `CC(C)NCCOc1ncc(-c2cc3c4c(cnc3cc2F)N(C)C(=O)C42CN(CCO)C2)cc1NS(C)(=O)=O` [Example 506, N-(5-(7′-Fluoro-1-(2-hydroxyethyl)-3′-methyl-2′-oxo-2′,3′-dihydrospiro[azetidine-3,1′-pyrrolo[2,3-c]quinolin]-8′-yl)-2-(2-(isopropylamino)ethoxy)pyridin-3-yl)methanesulfonamide], 1 to 100 nM; that for `COCCN1CC2(C1)C(=O)N(C)c1cnc3cc(F)c(-c4cnc(OCCNC(C)C)c(NS(C)(=O)=O)c4)cc3c12` [Example 507, N-(5-(7′-Fluoro-1-(2-methoxyethyl)-3 methyl-2′-oxo-2′,3′-dihydrospiro[azetidine-3,1′-pyrrolo[2,3-c]quinolin]-8′-yl)-2-(2-(isopropylamino)ethoxy)pyridin-3-yl)methanesulfonamide], 1 to 100 nM.
With `CC(C)NCCOc1ncc(-c2cc3c4c(cnc3cc2F)N(C)C(=O)C42CN(CC(F)F)C2)cc1NS(C)(=O)=O` [Example 508, N-(5-(1-(2,2-Difluoroethyl)-7′-fluoro-3′-methyl-2′-oxo-2′,3′-dihydrospiro[azetidine-3,1′-pyrrolo[2,3-c]quinolin]-8′-yl)-2-(2-(isopropylamino)ethoxy)pyridin-3-yl)methanesulfonamide], the IC50 was in the range of 1 to 100 nM.

These data come from patent US12187742B2 (XRAD Therapeutics, Inc., priority 2018, dated 2025).
